Values of other authors in US12296046B2, “Micro-emulsion containing creatine fatty-ester, method for preparing said micro-emulsion and uses thereof” (COMMISSARIAT À L'ÉNERGIE ATOMIQUE ET AUX ÉNERGIES …, priority 2018, dated 2025).

System: CrT−/y mice
Conditions: 30 mg/kg, intracerebroventricular administration

**Q.** Which “performance in the object recognition task” value does the source give for `CCCCCCCCCCCCOC(=O)CN(C)C(=N)N` [DCE, dodecyl creatine ester] here?
**A.** The value was “significantly improves the performance”.
